The target in series [1] is T1, h-EP4 (Homo sapiens, UniProt P35408). The series is described as follows: EP4 receptor binding assay (3H-PGE2 SPA). As to the method: Compounds of the invention were tested in an EP4 receptor binding assay of the following protocol.
In series [2] the target is T1, h-EP4. Nature of the series: EP4 cAMP assay in HEK293-EBNA cells transfected with pCEP4-hEP4. It counts as cell-based. As to the method: Compounds of the invention were tested in a total cAMP assay as follows. […] After overnight incubation, the medium was removed from each well and replaced with 45 μl of assay medium consisted of phenol red free D-MEM/F-12, 0.1% BSA (GibcoBRL) and 0.1 mM3-isobutyl-1-methyl-xanthine (Sigma). […] Total cAMP (intra- and extra-cellular) was measured by using a cAMP-screen ELISA System (Tropix, #CS1000).
In general terms: Changes in cAMP serve as a functional read-out for many G protein-coupled receptors.

Series [3] deals with mature 10-week CD-1 mice. Nature of the series: In vivo ovulation assay (mature mouse ovulation induction model). The conditions noted are these: for ED50: Mus musculus; for average of ova obtained: 5IU PMSG priming. As to the method: Ovulation triggering activity of compounds of the invention are tested in a mature mouse ovulation induction model.
Mature 10-week-old CD-mice are used. […] A test compound (based on solubility) is pre-dissolved in ethanol, DMSO or other reagents. Test compound is then diluted with saline or other diluents such as PBS or NP3S (5% N-methyl-pyrrolidinone/30% PEG-400/25% PEG-200/20% Propylene Glycol in saline). PMSG serves to stimulate follicule growth and maturation.
Uterus, oviducts and ovaries were collected and placed in pre-labeled dishes containing phosphate buffered saline (PBS). The collected tissues were transferred to the laboratory and intact oviduct carefully dissected out from uterus and ovary under the dissection microscope. The dissected oviducts were placed on the glass microscopic slide and covered with another slide. Two slides were taped on two edges. The numbers of ovulated ova in the oviducts were counted using upright microscope with 4× objective and recorded.
For evaluating the oral activity of this compound, two experiments were conducted, the first experiment was conducted with non-fasted animals and the second experiment was conducted in 24 h fasted animals (water provided). The compounds of the invention, according to their solubility are pre-dissolved in ethanol, DMSO or other reagents. The compounds of the invention are then diluted with saline or other diluents such as PBS or NP3S before oral administration.

Series [4] concerns the target h-EP2 (Homo sapiens, UniProt P43116). The series is described as follows: Prostaglandin EP2 receptor binding assay (3H-PGE2 SPA). On the procedure:
Compounds of the invention were tested in an EP2 receptor binding assay of the following protocol. As referred to herein, the term an “EP2 receptor binding assay” designates the following protocol.

For series [5], the system named is methacholine-induced bronchoconstriction. Nature of the series: In vivo inhibition of guinea pig methacholine-induced bronchoconstriction. As to conditions: for ED50: Cavia porcellus. On the procedure: Guinea pig pulmonary-cholinergic in vivo model is generally used to test the materials for the treatments of asthma in human (Fleisch at al. 1985, K. Pharmacol. Exp. Ther. 233: 148-157). Compounds of the invention are tested in this model.
Groups of 3 Duncan Hartley derived male or female guinea pigs weighing 250±50 g are anesthetized with pentobarbital sodium (50 mg/kg i.p., plus an additional 15 mg/kg i.p. if required) and succinylcholine chloride (2 mg/animal i.p.) is subsequently administered to prevent spontaneous respiration. Body temperature is maintained at 37° to 38° C.
The trachea is cannulated and the guinea pig is ventilated with a Harvard rodent respirator in a closed system. Tracheal pressure is recorded through a side-arm of the cannula connected to a P23ID Statham transducer. Respiratory rate is set at 50 strokes/minute with a stroke volume (approximately 1 ml/100 g) sufficient to produce a baseline tracheal pressure of 6 cm H2O. Mean arterial pressure (BP) is monitored from a cannulated carotid artery, and heart-rate (HR) is obtained from chest electrodes arranged for lead II. The jugular vein is cannulated for i.v. vehicle or drug administration in a volume of 1 ml/kg.
Cholinergic-induced bronchoconstrictor responses, reflected as increases in tracheal pressure (cm H2O), are elicited by administration of methacholine hydrochloride (10 μg/kg base weight i.v.). In vehicle-treated control animals, methacholine-induced bronchoconstriction ranges from 70 to 90 percent of its own maximum response (about 40 to 65 percent of maximum possible bronchoconstriction obtained by tracheal occlusion).
Compounds of the invention are also tested via intratracheal (IT) route of administration. In this other experiment, compound of the invention, reference compound or vehicle is administered IT 10 (5 min for experiment 1 and 2) minutes before methacholine chloride (10 μg/kg i.v.) induced bronchoconstriction. Tracheal pressure (ITP), blood pressure and heart rate are measured immediately as indicated in the material and methods sections.
MED (medium effective dose) is measured.
Compounds of the invention are administered i.v. (10 mg/kg) 5 minutes before subministration of the methacoline hydrochloride challenge in 3 guinea pigs. A 50 percent or more (≧50) inhibition of the induced bronchoconstriction relative to vehicle treated control animals is considered significant.

Series [6] deals with TNFα. The series is described as follows: In vivo inhibition of LPS-induced TNFa release in mice. The conditions noted are these: oral; Inhibitory Dose at 50% of the maximum effect. As to the method:
The anti-inflammatory activity of compounds of the invention may be assessed after a LPS challenge using the following protocol:
Eight weeks old C3H/HEN mice (IFFA-CREDO, L'arbresle, France) receive an oral treatment with compounds of the invention 6 different doses (0.001, 0.01, 0.1, 1 or 3 and 10 mg/kg in 0.5% CMC/0.25% tween-20). Six mice are used by group. Fifteen minutes later, endotoxins (O111:B4 Sigma, 0.3 mg/kg) are intraperitoneally injected. Heparinized whole blood is collected by decapitation. TNFα level is determined in plasma by ELISA (R & D Systems, Abdingdon, UK). Control animals receive 0.5% CMC/0.25% tween-20 (10 ml/kg) as vehicle. Data obtained from experiments are expressed as the mean±SEM and analysed using one-way analysis of variance (ANOVA) followed by Dunnett's t-test.

The mark [7] stands for this setting: Table 2, total cAMP, read-out: h-EP4 EC50.
The mark [8] stands for this setting: po, Table 3, p.o., read-out: Ovulation Induction (ED50, mg/kg) p.o.
Where [9] appears, read: sc, Table 3, s.c., read-out: Ovulation Induction (ED50, mg/kg) s.c.
The mark [10] stands for this setting: read-out: Ki measured as described in Example 83 (EP4).
Setting [11] is: sc, read-out: calculated ED50, ovulation induction.

pEC50, pKi: −log10 of the molar value. Where two headings read alike, the source gives them in different places. Bounds are passed on as bounds.

A word on the pKi: it is the Ki on a negative log10 scale, so that one unit is a factor of ten. In general, pEC50 refers to the EC50 on a negative log10 scale, so that one unit is a factor of ten.

Sequence of h-EP2 (P43116 whole entry): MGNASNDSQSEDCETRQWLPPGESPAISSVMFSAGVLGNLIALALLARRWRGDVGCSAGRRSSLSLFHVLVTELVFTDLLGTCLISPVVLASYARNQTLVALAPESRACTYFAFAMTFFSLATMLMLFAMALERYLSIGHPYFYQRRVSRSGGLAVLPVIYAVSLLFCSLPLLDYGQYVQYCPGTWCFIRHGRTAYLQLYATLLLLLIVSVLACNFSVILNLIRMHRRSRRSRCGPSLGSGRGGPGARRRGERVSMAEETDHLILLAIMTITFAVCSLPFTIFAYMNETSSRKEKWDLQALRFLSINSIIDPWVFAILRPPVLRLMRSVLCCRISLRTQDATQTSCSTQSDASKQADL
T1 sequence (P35408 whole entry): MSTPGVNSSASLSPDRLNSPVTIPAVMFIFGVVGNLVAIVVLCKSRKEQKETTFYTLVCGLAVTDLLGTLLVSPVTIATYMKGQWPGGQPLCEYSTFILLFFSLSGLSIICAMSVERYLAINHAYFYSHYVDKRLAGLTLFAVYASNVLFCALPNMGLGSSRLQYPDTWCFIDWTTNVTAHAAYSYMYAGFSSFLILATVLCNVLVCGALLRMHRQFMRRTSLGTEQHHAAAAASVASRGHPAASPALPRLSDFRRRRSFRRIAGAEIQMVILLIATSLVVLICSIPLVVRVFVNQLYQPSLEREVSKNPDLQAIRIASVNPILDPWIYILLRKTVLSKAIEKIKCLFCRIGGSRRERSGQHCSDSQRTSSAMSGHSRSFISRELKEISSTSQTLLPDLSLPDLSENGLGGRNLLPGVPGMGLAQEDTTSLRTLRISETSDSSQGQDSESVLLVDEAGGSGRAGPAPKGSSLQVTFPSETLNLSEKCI

As for `CCCCC(C)(C)C(O)/C=C/[C@H]1CCC(=O)N1CCc1ccc(C(=O)O)cc1` (stereo in doubt) [Example 5, 4-(2-{2-[(1E,3S)-3-hydroxy-4,4-dimethyloct-1-enyl]-5-oxopyrrolidin-1-yl}ethyl)benzoic acid], the pKi in series [1] (Table 1, read-out: h-EP4 Ki) was 9.14; in series [4] (Table 1, read-out: h-EP2 Ki) it was 5.91. Further, the negative-log EC50 (pEC50) in series [2] (setting [7]) was 10.85. Moreover, the values for the ED50 in series [3] (setting [8]) and in series [3] (setting [9]) were 18 mg/kg and 3 mg/kg, respectively.
Consider `CCCCC(C)(C)C(O)/C=C/[C@H]1CCC(=O)N1CCc1ccc(C(=O)O)cc1` (stereo in doubt) [Example 6, 4-(2-{2-[(1E,3R)-3-hydroxy-4,4-dimethyloct-1-enyl]-5-oxopyrrolidin-1-yl}ethyl)benzoic acid], for which the pKi is 7.70 in series [1] (Table 1, read-out: h-EP4 Ki) and 5.68 in series [4] (Table 1, read-out: h-EP2 Ki).
With `O=C(O)c1ccc(CCN2C(=O)CCN2CCC(O)Cc2cccc(I)c2)cc1` (centres unmarked) [4-(2-{2-.[4-(3-iodophenyl)-3-hydroxybutyl]-5-oxopyrazolidin-1-yl}ethyl)benzoic acid, reference compound], the negative-log Ki (pKi) in series [1] (setting [10]) is 7.85; in series [4] (read-out: Ki on EP2), 5.35. This compound yielded a release of ova in series [3] (orally, single dose of 20 mg/kg) of 10±3 ova.
`O=C(O)c1ccc(CCN2C(=O)CCN2CCC(O)Cc2cccc(C(F)(F)F)c2)cc1` (centres unmarked) [4-[2-(2-{3-hydroxy-4-[3-(trifluoromethyl)phenyl]butyl}-5-oxopyrazolidin-1-yl)ethyl]benzoic acid, reference compound]: the pKi in series [1] (setting [10]) is 7.64. In addition, the pEC50 in series [2] (read-out: EC50 measured as described in Example 84 (EP4)) was 9.70. In series [3] (setting [11]), the ED50 is 5 mg/kg.
On to `CCCC1([C@H](O)C/C=C/[C@H]2[C@H](O)CC(=O)[C@@H]2CCCCCCC(=O)OC)CCC1` [Butaprost, reference compound], for which the pKi in series [1] (Table 2, read-out: h-EP4 Ki) is less than 5.00. Further, the ED50 in series [3] (setting [9]) is greater than 30 mg/kg.
With `CCCCC[C@H](O)/C=C/[C@H]1CCC(=O)N1CCc1ccc(C(=O)O)cc1` [Example 1, 4-(2-{(2R)-2-[(1E,3S)-3-hydroxyoct-1-enyl]-5-oxopyrrolidin-1-yl}ethyl) benzoic acid], the negative logarithm of the Ki (pKi) in series [1] (Table 1, read-out: h-EP4 Ki) was 8.70; in series [4] (Table 1, read-out: h-EP2 Ki), 6.92. Also, the “average of ova obtained” value in series [3] (Group 4: 10 mg/kg s.c.) is on record as “an average of 25 ova were obtained for Group 4;”; in series [3] (Group 5: 30 mg/kg s.c.), “an average of 22.4 ova were obtained for Group 5;”. Moreover, the ED50 in series [3] (setting [8]) was 22 mg/kg; in series [3] (setting [9]) it was 3.8 mg/kg; in series [3] (setting [11]) it was 3.9 mg/kg; in series [3] (oral, 24 h fasted animals, read-out: calculated ED50, ovulation induction) it was 21.1 mg/kg; in series [3] (oral, non-fasted animals, read-out: calculated ED50, ovulation induction), 22 mg/kg; in series [5] (iv, read-out: calculated effective dose (ED50), bronchoconstriction), roughly 0.0017 mg/kg. Further, the ED50 in series [5] (IT route of administration, read-out: calculated ED50, bronchoconstriction) was 0.0024 mg/kg. Moreover, the “activity in the mice ovulation induction model” value in series [3] (subcutaneous (sc), oral (po) and intravenous (iv) routes) is “active”. Moreover, in series [5] (IT route of administration), the “calculated ED50, bronchoconstriction” value is recorded as 0.72 μg/GP. For the same compound, in series [5] (i.v., 3 10^−5 up to 0.3 mg/kg), the “effect on blood pressure and heart beat” value is reported as “not altering neither blood pressure nor heart beat”.
For `O=C(O)c1ccc(CCN2C(=O)CC[C@@H]2/C=C/[C@@H](O)C2(c3ccccc3)CC2)cc1` [Example 7, 4-(2-{(2R)-2-[(1E,3R)-3-hydroxy-3-(1-phenylcyclopropyl)prop-1-enyl]-5 oxopyrrolidin-1-yl}ethyl)benzoic acid], the pKi in series [1] (Table 1, read-out: h-EP4 Ki) is 7.80; in series [1] (Table 2, read-out: h-EP4 Ki), 8.70; in series [4] (Table 1, read-out: h-EP2 Ki), 6.66. In addition, the ED50 in series [3] (setting [9]) came to 0.73 mg/kg.
For the compound `O=C(O)c1ccc(CCN2C(=O)CC[C@@H]2/C=C/[C@H](O)C2(c3ccccc3)CC2)cc1` [Example 8, 4-(2-{(2R)-2-[(1E,3S)-3-hydroxy-3-(1-phenylcyclopropyl)prop-1-enyl]-5-oxopyrrolidin-1-yl}ethyl)benzoic acid], the pKi in series [1] (Table 1, read-out: h-EP4 Ki) is 7.60; in series [4] (Table 1, read-out: h-EP2 Ki) it was 5.71.
In the case of `O=C(O)c1ccc(CCN2C(=O)CC[C@@H]2/C=C/[C@@H](O)Cc2cccc(Cl)c2)cc1` [Example 9, 4-(2-{(2R)-2-[(1E,3S)-3-hydroxy-4-(3-chlorophenyl)but-1-enyl]-5-oxopyrrolidin-1-yl}ethyl)benzoic acid], in series [1] (Table 2, read-out: h-EP4 Ki), the negative-log Ki (pKi) is 9.30. Further, the negative logarithm of the EC50 (pEC50) in series [2] (setting [7]) was 7.52. For the same compound, the ED50 in series [3] (setting [8]) came out at 1 mg/kg.
For the compound `CCCCCC[C@H](O)/C=C/[C@H]1CCC(=O)N1CCc1ccc(C(=O)O)cc1` [Example 10, 4-(2-{(2R)-2-[(1E,3S)-3-hydroxynon-1-enyl]-5-oxopyrrolidin-1-yl}ethyl) benzoic acid], the negative-log Ki (pKi) in series [1] (Table 2, read-out: h-EP4 Ki) was 9.00.
For the compound `O=C(O)c1ccc(CCN2C(=O)CC[C@@H]2/C=C/[C@@H](O)Cc2ccccc2)cc1` [Example 31, 4-[2-{(2R)-2-[(1E,3S)-3-hydroxy-4-phenylbut-1-enyl]-5-oxopyrrolidin-1-yl}ethyl)benzoic acid], in series [1] (Table 2, read-out: h-EP4 Ki), the pKi was 10.30. Further, the ED50 in series [3] (setting [8]) was determined as 1 mg/kg; in series [3] (setting [9]) it was 0.32 mg/kg. Further, in series [6], the “ID50” value came to 0.003 mg/kg.
On to `CCCCC1([C@H](O)/C=C/[C@H]2CCC(=O)N2CCc2ccc(C(=O)O)cc2)CCC1` [Example 45, 4-(2-{(2R)-2-[(1E,3R)-3-(1-butylcyclobutyl)-3-hydroxyprop-1-enyl]-5-oxopyrrolidin-1-yl}ethyl)benzoic acid], for which the negative-log Ki (pKi) in series [1] (Table 2, read-out: h-EP4 Ki) is 8.70. The pEC50 in series [2] (setting [7]) is 9.52. Also, in series [3] (setting [8]), the ED50 was 1 mg/kg. The “ID50” value in series [6] is given as 0.010 mg/kg.
Take `CCCCC[C@H](O)/C=C/[C@H]1[C@H](O)CC(=O)[C@@H]1C/C=C\CCCC(=O)O` [PGE2, reference compound]: in series [3] (Group 3: 13.5 mg/kg), the “average of ova obtained” value was “an average of 19.4 ova were obtained for Group 3;”.
With `CS(=O)(=O)NC(=O)CCC/C=C\C[C@H]1C(=O)C[C@@H](O)[C@@H]1/C=C/[C@@H](O)COc1ccccc1` [Sulprostone, reference compound], the pKi in series [1] (Table 2, read-out: h-EP4 Ki) is 5.11. In addition, the ED50 in series [3] (setting [9]) is greater than 27 mg/kg.

These data come from patent US7419999B2, “Gamma lactams as prostaglandin agonists and use thereof” (Applied Research Systems ARS Holding N.V., priority 2002, dated 2008).
